This passage reports IC50 results from patent US20240116951A1, “HETEROCYCLIC COMPOUNDS AND USES THEREOF” (Kumquat Biosciences Inc., priority 2022, published 2024).

SMILES strings stand for the structures.

Holding throughout (assay type): binding
The target in one test is T1, KRAS G12S (Homo sapiens, UniProt P01116, G12S).
T1 construct: made in house; host or cells: E. coli, e.g. BL21 (DE3)
Nature of the test: HTRF assay of K-Ras G12S interaction with SOS1 (PPI-HTRF). Conditions: 5 nM KRAS G12S, read-out: PPI-HTRF-5 nM KRAS G12S. In short, it runs like this: (§1)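 HTRF readout of GST-tagged K-Ras (WT or mutant) binding to His-hSOS1, using anti-GST-Eu donor and anti-6His-XL665 acceptor in HEPES pH 7.4 buffer with DTT, BSA and Igepal. Read after about 10 min or longer; duplicate compound dilutions from 10 μM. IC50 from 665/620 nm ratio.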

For a further test, the target named is T2, KRAS G12D (Homo sapiens, UniProt P01116, G12D).
T2 construct: made in house; host or cells: E. coli, e.g. BL21 (DE3)
T2 sequence (P01116 1-188 isoform P01116-2 G12D): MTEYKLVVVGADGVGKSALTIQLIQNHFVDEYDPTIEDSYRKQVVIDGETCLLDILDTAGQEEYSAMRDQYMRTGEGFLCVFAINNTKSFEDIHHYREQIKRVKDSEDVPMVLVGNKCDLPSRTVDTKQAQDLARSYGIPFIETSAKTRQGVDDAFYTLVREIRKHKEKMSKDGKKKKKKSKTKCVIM
Nature of the test: HTRF assay of K-Ras G12D interaction with SOS1 (PPI-HTRF). Conditions: HTRF, 5 nM KRAS G12D; read-out: PPI-HTRF-5 nM KRAS G12D. Put shortly: as §1

In another test the target is T3, KRAS WT (Homo sapiens, UniProt P01116).
T3 construct: made in house; host or cells: E. coli, e.g. BL21 (DE3)
T3 sequence (P01116 1-188 isoform P01116-2): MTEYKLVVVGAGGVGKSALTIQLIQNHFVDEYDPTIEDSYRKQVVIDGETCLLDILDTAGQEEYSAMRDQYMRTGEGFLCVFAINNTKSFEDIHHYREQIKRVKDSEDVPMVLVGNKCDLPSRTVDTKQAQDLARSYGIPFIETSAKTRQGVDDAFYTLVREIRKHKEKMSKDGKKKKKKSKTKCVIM
Nature of the test: HTRF assay of wildtype K-Ras interaction with SOS1 (PPI-HTRF). Conditions: HTRF, 5 nM KRAS WT; read-out: PPI-HTRF-5 nM KRAS WT. Put shortly: as §1

T1 sequence (P01116 1-188 isoform P01116-2 G12S): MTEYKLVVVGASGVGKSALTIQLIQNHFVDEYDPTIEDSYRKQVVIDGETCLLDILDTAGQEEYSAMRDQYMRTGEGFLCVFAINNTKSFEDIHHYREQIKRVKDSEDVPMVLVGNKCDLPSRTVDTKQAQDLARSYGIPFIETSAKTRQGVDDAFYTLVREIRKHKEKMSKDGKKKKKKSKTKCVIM

Turning to `N#Cc1c(N)sc2c(F)ccc(-c3c(Cl)cc4c(N5CCC6(CCCN6)C5)nc(OC[C@@]56CCCN5C[C@H](F)C6)nc4c3F)c12` (stereo partly drawn) [Compound 284, 2-amino-4-(6-chloro-8-fluoro-2-(((2R,7aS)-2-fluorotetrahydro-1H-pyrrolizin-7a(5H)-yl)methoxy)-4-(1,7-diazaspiro[4.4]nonan-7-yl)quinazolin-7-yl)-7-fluorobenzo[b]thiophene-3-carbonitrile], the IC50 at KRAS G12S, at KRAS G12D and on KRAS WT was less than 5 µM in each case.
`C#Cc1c(F)ccc2cc(O)cc(-c3ncc4c(N5CCC6(CCN6)C5)nc(O[C@@H](C)[C@@H]5CCCN5C)nc4c3F)c12` (stereo partly drawn) [Compound 239, 5-ethynyl-6-fluoro-4-(8-fluoro-2-((S)-1-((S)-1-methylpyrrolidin-2-yl)ethoxy)-4-(1,6-diazaspiro[3.4]octan-6-yl)pyrido[4,3-d]pyrimidin-7-yl)naphthalen-2-ol]: the results for the IC50 at KRAS G12S, on KRAS G12D and at KRAS WT were less than 5 µM, greater than 5 µM and less than 5 µM, respectively.
Regarding `Nc1nc2c(-c3c(Cl)cc4c(N5CCCC6(CCN6)C5)nc(OC[C@@]56CCCN5C[C@H](F)C6)nc4c3F)ccc(F)c2s1` (stereo partly drawn) [Compound 202, 4-(6-chloro-8-fluoro-2-(((2R,7aS)-2-fluorotetrahydro-1H-pyrrolizin-7a(5H)-yl)methoxy)-4-(1,6-diazaspiro[3.5]nonan-6-yl)quinazolin-7-yl)-7-fluorobenzo[d]thiazol-2-amine], the IC50 at KRAS G12S, at KRAS G12D and on KRAS WT was less than 5 µM throughout.
Take `C[C@H]1N(c2nc(OC[C@@]34CCCN3C[C@H](F)C4)nc3c(F)c(-c4ccc(F)c5sc(N)c(C#N)c45)c(Cl)cc23)CC[C@@]12CCN2C(=O)n1cnc(Cl)n1` [Compound 263, 2-amino-4-(6-chloro-4-((4R,5R)-1-(3-chloro-1H-1,2,4-triazole-1-carbonyl)-5-methyl-1,6-diazaspiro[3.4]octan-6-yl)-8-fluoro-2-(((2R,7aS)-2-fluorotetrahydro-1H-pyrrolizin-7a(5H)-yl)methoxy)quinazolin-7-yl)-7-fluorobenzo[b]thiophene-3-carbonitrile]: the IC50 at KRAS G12S, on KRAS G12D and on KRAS WT was less than 5 µM each time.
As to `N#Cc1c(N)sc2c(F)ccc(-c3c(Cl)cc4c(N5CCC6(CCN6C(=O)[C@@H]6N[C@H]6C6CC6)C5)nc(OC[C@@]56CCCN5C[C@H](F)C6)nc4c3F)c12` (stereo partly drawn) [Compound 296, 2-amino-4-(6-chloro-4-(1-((2R,3S)-3-cyclopropylaziridine-2-carbonyl)-1,6-diazaspiro[3.4]octan-6-yl)-8-fluoro-2-(((2R,7aS)-2-fluorotetrahydro-1H-pyrrolizin-7a(5H)-yl)methoxy)quinazolin-7-yl)-7-fluorobenzo[b]thiophene-3-carbonitrile], the IC50 on KRAS G12S, on KRAS G12D and on KRAS WT was less than 5 µM in each case.
In the case of `C[C@H]1CN(C(=O)n2cncn2)[C@]12CCN(c1nc(OC[C@@]34CCCN3C[C@H](F)C4)nc3c(F)c(-c4ccc(F)c5sc(N)c(C#N)c45)c(Cl)cc13)C2` [Compound 324, 2-amino-4-(6-chloro-8-fluoro-2-(((2R,7aS)-2-fluorotetrahydro-1H-pyrrolizin-7a(5H)-yl)methoxy)-4-((3S,4R)-3-methyl-1-(1H-1,2,4-triazole-1-carbonyl)-1,6-diazaspiro[3.4]octan-6-yl)quinazolin-7-yl)-7-fluorobenzo[b]thiophene-3-carbonitrile], the IC50 on KRAS G12S, on KRAS G12D and at KRAS WT was less than 5 µM each time.
In the case of `N#Cc1c(N)sc2c(F)ccc(-c3c(Cl)cc4c(N5CCC6(CCCN6C(=O)C6CC6(F)F)C5)nc(OC[C@@]56CCCN5C[C@H](F)C6)nc4c3F)c12` (stereo partly drawn) [Compound 217, 2-amino-4-(6-chloro-4-(1-(2,2-difluorocyclopropane-1-carbonyl)-1,7-diazaspiro[4.4]nonan-7-yl)-8-fluoro-2-(((2R,7aS)-2-fluorotetrahydro-1H-pyrrolizin-7a(5H)-yl)methoxy)quinazolin-7-yl)-7-fluorobenzo[b]thiophene-3-carbonitrile], the IC50 at KRAS G12S, on KRAS G12D and at KRAS WT was less than 5 µM throughout.
Turning to `Nc1nc2c(-c3c(Cl)cc4c(NC5CC6(CCN6)C5)nc(OC[C@@]56CCCN5C[C@H](F)C6)nc4c3F)ccc(F)c2s1` (stereo partly drawn) [Compound 230, 4-(4-((1-azaspiro[3.3]heptan-6-yl)amino)-6-chloro-8-fluoro-2-(((2R,7aS)-2-fluorotetrahydro-1H-pyrrolizin-7a(5H)-yl)methoxy)quinazolin-7-yl)-7-fluorobenzo[d]thiazol-2-amine], the IC50 at KRAS G12S, at KRAS G12D and at KRAS WT was less than 5 µM throughout.
For `Nc1nc2c(-c3c(Cl)cc4c(N5CCC6(CCN6)CC5)nc(OC[C@@]56CCCN5C[C@H](F)C6)nc4c3F)ccc(F)c2s1` [Compound 265, 4-(6-chloro-8-fluoro-2-(((2R,7aS)-2-fluorotetrahydro-1H-pyrrolizin-7a(5H)-yl)methoxy)-4-(1,7-diazaspiro[3.5]nonan-7-yl)quinazolin-7-yl)-7-fluorobenzo[d]thiazol-2-amine], the values for the IC50 on KRAS G12S, at KRAS G12D and at KRAS WT were greater than 5 µM, less than 5 µM and less than 5 µM, respectively.
In the case of `N#Cc1c(N)sc2c(F)ccc(-c3c(Cl)cc4c(N5CC[C@@]6(CCN6C(=O)n6cnc(C(F)F)n6)C5)nc(OC[C@@]56CCCN5C[C@H](F)C6)nc4c3F)c12` (atropisomer, axis not shown; (aS)) [Compound 278, 2-amino-4-((R)-6-chloro-4-((R)-1-(3-(difluoromethyl)-1H-1,2,4-triazole-1-carbonyl)-1,6-diazaspiro[3.4]octan-6-yl)-8-fluoro-2-(((2R,7aS)-2-fluorotetrahydro-1H-pyrrolizin-7a(5H)-yl)methoxy)quinazolin-7-yl)-7-fluorobenzo[b]thiophene-3-carbonitrile], the IC50 at KRAS G12S, on KRAS G12D and on KRAS WT was less than 5 µM throughout.
Turning to `N#Cc1c(N)sc2c(F)ccc(-c3c(Cl)cc4c(N5CCC6(CCN6C(=O)OC(CO)C(F)(F)F)C5)nc(OC[C@@]56CCCN5C[C@H](F)C6)nc4c3F)c12` (stereo partly drawn) [Compound 345, 1,1,1-trifluoro-3-hydroxypropan-2-yl 6-(7-(2-amino-3-cyano-7-fluorobenzo[b]thiophen-4-yl)-6-chloro-8-fluoro-2-(((2R,7aS)-2-fluorotetrahydro-1H-pyrrolizin-7a(5H)-yl)methoxy)quinazolin-4-yl)-1,6-diazaspiro[3.4]octane-1-carboxylate], the IC50 at KRAS G12S, on KRAS G12D and at KRAS WT was less than 5 µM each time.
For `C[C@H]1CN[C@]12CCN(c1nc(OC[C@@]34CCCN3C[C@H](F)C4)nc3c(F)c(-c4ccc(F)c5sc(N)c(C#N)c45)c(Cl)cc13)C2` [Compound 334, 2-amino-4-(6-chloro-8-fluoro-2-(((2R,7aS)-2-fluorotetrahydro-1H-pyrrolizin-7a(5H)-yl)methoxy)-4-((3S,4R)-3-methyl-1,6-diazaspiro[3.4]octan-6-yl)quinazolin-7-yl)-7-fluorobenzo[b]thiophene-3-carbonitrile], the IC50 on KRAS G12S, on KRAS G12D and on KRAS WT was less than 5 µM throughout.
